System: MV-4-11 cells
Assay: Gene expression microarray analysis (Affymetrix PrimeView) and GSEA
Format: cell-based, human
Parameters: RFU PODN (11730768_x_at) / Fold change /veh PODN (11730768_x_at) / RFU LINC00158 (11744669_a_at) / Fold change /veh LINC00158 (11744669_a_at) / RFU DUSP10 (11751237_a_at) / Fold change /veh DUSP10 (11751237_a_at) / RFU ID3 (11757404_x_at) / Fold change /veh ID3 (11757404_x_at) / RFU PLEKHG5 (11737974_s_at) / Fold change /veh PLEKHG5 (11737974_s_at) / RFU LRRC4B (11730491_at) / Fold change /veh LRRC4B (11730491_at) / RFU GIMAP4 (11747438_a_at) / Fold change /veh GIMAP4 (11747438_a_at) / RFU KRT8 (11758183_x_at) / Fold change /veh KRT8 (11758183_x_at) / RFU CNN1 (11734310_a_at) / Fold change /veh CNN1 (11734310_a_at) / RFU VPS37D (11726825_at) / Fold change /veh VPS37D (11726825_at) / RFU C10orf10 (11716522_x_at) / Fold change /veh C10orf10 (11716522_x_at) / RFU KIR2DL2 /// KIR2DL4 /// KIR2DL5A /// KIR2DL5B /// KIR2DS1 /// KIR2DS2 /// KIR2DS3 /// KIR2DS4 /// KIR3DL3 /// KIR3DL3 /// KIR3DS1 (11738374_at) / Fold change /veh KIR2DL2 /// KIR2DL4 /// KIR2DL5A /// KIR2DL5B /// KIR2DS1 /// KIR2DS2 /// KIR2DS3 /// KIR2DS4 /// KIR3DL3 /// KIR3DL3 /// KIR3DS1 (11738374_at) / RFU C1QL1 (11718748_at) / Fold change /veh C1QL1 (11718748_at) / RFU TMPRSS4 (11747572_a_at) / Fold change /veh TMPRSS4 (11747572_a_at) / RFU HAMP (11756126_x_at) / Fold change /veh HAMP (11756126_x_at) / RFU RNFT2 (11725882_a_at) / Fold change /veh RNFT2 (11725882_a_at) / RFU NR4A2 (11747474_a_at) / Fold change /veh NR4A2 (11747474_a_at) / RFU ABCC12 (11746883_a_at) / Fold change /veh ABCC12 (11746883_a_at) / RFU TMEM136 (11760407_x_at) / Fold change /veh TMEM136 (11760407_x_at) / RFU CLDN22 /// WWC2 (11732394_at) / Fold change /veh CLDN22 /// WWC2 (11732394_at) / RFU HLA-DPB1 (11760878_x_at) / Fold change /veh HLA-DPB1 (11760878_x_at) / RFU SPINT1 (11716480_a_at) / Fold change /veh SPINT1 (11716480_a_at) / RFU GAP43 (11754022_s_at) / Fold change /veh GAP43 (11754022_s_at) / RFU A4GNT (11735810_at) / Fold change /veh A4GNT (11735810_at) / RFU PRB3 (11715151_x_at) / Fold change /veh PRB3 (11715151_x_at) / RFU TUBB4B (11761932_at) / Fold change /veh TUBB4B (11761932_at) / RFU CAPN14 (11732068_a_at) / Fold change /veh CAPN14 (11732068_a_at) / RFU TMCC2 (11721928_a_at) / Fold change /veh TMCC2 (11721928_a_at) / RFU IRGQ (11745062_a_at) / Fold change /veh IRGQ (11745062_a_at) / RFU FAM174B (11720279_a_at) / Fold change /veh FAM174B (11720279_a_at) / RFU TMPRSS4 (11748680_a_at) / Fold change /veh TMPRSS4 (11748680_a_at) / RFU FAM212B (11763350_a_at) / Fold change /veh FAM212B (11763350_a_at) / RFU PLEKHG5 (11743358_a_at) / Fold change /veh PLEKHG5 (11743358_a_at) / RFU ZSCAN30 (11745921_a_at) / Fold change /veh ZSCAN30 (11745921_a_at) / RFU CMKLR1 (11741424_a_at) / Fold change /veh CMKLR1 (11741424_a_at) / RFU LOC101060620 /// MAPK8IP1 (11723275_at) / Fold change /veh LOC101060620 /// MAPK8IP1 (11723275_at) / RFU SPTSSB (11747773_x_at) / Fold change /veh SPTSSB (11747773_x_at) / RFU PRSS12 (11739890_at) / Fold change /veh PRSS12 (11739890_at) / RFU BIN1 (11741810_x_at) / Fold change /veh BIN1 (11741810_x_at) / RFU WNT11 (11732464_a_at) / Fold change /veh WNT11 (11732464_a_at) / RFU C10orf10 (11716521_a_at) / Fold change /veh C10orf10 (11716521_a_at) / RFU C5orf56 (11738089_at) / Fold change /veh C5orf56 (11738089_at) / RFU CYB561 (11721691_x_at) / Fold change /veh CYB561 (11721691_x_at) / RFU ANKRD19P (11752326_a_at) / Fold change /veh ANKRD19P (11752326_a_at) / RFU OR2T12 /// OR2T33 /// OR2T8 (11738714_s_at) / Fold change /veh OR2T12 /// OR2T33 /// OR2T8 (11738714_s_at) / RFU VCAN (11748164_a_at) / Fold change /veh VCAN (11748164_a_at) / RFU JSRP1 (11732532_at) / Fold change /veh JSRP1 (11732532_at) / RFU KRTAP10-11 (11738290_x_at) / Fold change /veh KRTAP10-11 (11738290_x_at) / RFU MYO3A (11730013_a_at) / Fold change /veh MYO3A (11730013_a_at) / RFU EBF3 (11725865_a_at) / Fold change /veh EBF3 (11725865_a_at) / RFU CAMK2N1 (11719241_x_at) / Fold change /veh CAMK2N1 (11719241_x_at) / RFU C5orf56 (11738088_a_at) / Fold change /veh C5orf56 (11738088_a_at) / RFU OLFML3 (11715873_a_at) / Fold change /veh OLFML3 (11715873_a_at) / RFU LOC100653217 /// NTM (11731650_a_at) / Fold change /veh LOC100653217 /// NTM (11731650_a_at) / RFU MAPK11 (11762145_a_at) / Fold change /veh MAPK11 (11762145_a_at) / RFU FIZ1 (11724087_x_at) / Fold change /veh FIZ1 (11724087_x_at) / RFU OASL (11726364_x_at) / Fold change /veh OASL (11726364_x_at) / RFU SOX15 (11748057_x_at) / Fold change /veh SOX15 (11748057_x_at) / RFU CD79A (11719716_a_at) / Fold change /veh CD79A (11719716_a_at) / RFU HIST1H1D (11736915_at) / Fold change /veh HIST1H1D (11736915_at) / RFU CASKIN2 (11723855_a_at) / Fold change /veh CASKIN2 (11723855_a_at) / RFU LOC730098 (11760151_x_at) / Fold change /veh LOC730098 (11760151_x_at) / RFU OR4N2 (11742367_at) / Fold change /veh OR4N2 (11742367_at) / RFU PRRT2 (11749266_a_at) / Fold change /veh PRRT2 (11749266_a_at) / RFU SNX32 (11753110_a_at) / Fold change /veh SNX32 (11753110_a_at) / RFU CDHR5 (11726645_a_at) / Fold change /veh CDHR5 (11726645_a_at) / RFU RCAN1 (11760418_a_at) / Fold change /veh RCAN1 (11760418_a_at) / RFU FAM167A (11723789_a_at) / Fold change /veh FAM167A (11723789_a_at) / RFU FAM26E (11764081_at) / Fold change /veh FAM26E (11764081_at) / RFU ISYNA1 (11749810_s_at) / Fold change /veh ISYNA1 (11749810_s_at) / RFU ACY1 (11761880_at) / Fold change /veh ACY1 (11761880_at) / RFU 11764098_at / Fold change /veh 11764098_at / RFU SAMD14 (11745864_x_at) / Fold change /veh SAMD14 (11745864_x_at) / RFU NPB (11741838_a_at) / Fold change /veh NPB (11741838_a_at) / RFU TMPRSS6 (11731388_a_at) / Fold change /veh TMPRSS6 (11731388_a_at) / RFU KRTAP10-2 (11738614_at) / Fold change /veh KRTAP10-2 (11738614_at) / RFU ARHGAP8 /// PRR5-ARHGAP8 (11727945_x_at) / Fold change /veh ARHGAP8 /// PRR5-ARHGAP8 (11727945_x_at) / RFU KRTAP5-7 /// NADSYN1 (11734609_at) / Fold change /veh KRTAP5-7 /// NADSYN1 (11734609_at) / RFU RASL12 (11751679_a_at) / Fold change /veh RASL12 (11751679_a_at) / RFU CDKN2B (11736163_a_at) / Fold change /veh CDKN2B (11736163_a_at) / RFU PRF1 (11729649_at) / Fold change /veh PRF1 (11729649_at) / RFU, ZNF638 /// ZNF638-IT1 / Fold change vs veh, ZNF638 /// ZNF638-IT1 / RFU, PANK3 / Fold change vs veh, PANK3 / RFU, SH3YL1 / Fold change vs veh, SH3YL1 / RFU, ZEB2 / Fold change vs veh, ZEB2 / RFU, NRIP1 / Fold change vs veh, NRIP1 / RFU, PTTG1IP / Fold change vs veh, PTTG1IP / RFU, CAPN2 / Fold change vs veh, CAPN2 / RFU, MED14 / Fold change vs veh, MED14 / RFU, SNORA58 / Fold change vs veh, SNORA58 / RFU, C1orf63 / Fold change vs veh, C1orf63 / RFU, LRRFIP1 / Fold change vs veh, LRRFIP1 / RFU, NDUFAF7 / Fold change vs veh, NDUFAF7 / RFU, SLC12A2 / Fold change vs veh, SLC12A2 / RFU, IBTK / Fold change vs veh, IBTK / RFU, ESF1 / Fold change vs veh, ESF1 / Fold change vs veh, TMEM50B / RFU, TAOK1 / Fold change vs veh, TAOK1 / RFU, ACBD3 / Fold change vs veh, ACBD3 / RFU, TMA16 / Fold change vs veh, TMA16 / RFU, RWDD3 / Fold change vs veh, RWDD3 / RFU, BCAT1 / Fold change vs veh, BCAT1 / RFU, EDEM3 / Fold change vs veh, EDEM3 / RFU, TMEM33 / Fold change vs veh, TMEM33 / RFU, WDR75 / Fold change vs veh, WDR75 / RFU, AHCTF1 / Fold change vs veh, AHCTF1 / RFU, TFRC / Fold change vs veh, TFRC / RFU, ZDHHC17 / Fold change vs veh, ZDHHC17 / RFU, NOM1 / Fold change vs veh, NOM1 / RFU, ARL8B / Fold change vs veh, ARL8B / RFU, ZBTB11 / Fold change vs veh, ZBTB11 / RFU, TAMM41 / Fold change vs veh, TAMM41 / RFU, KIAA1704 /// LOC100996395 / Fold change vs veh, KIAA1704 /// LOC100996395 / RFU, ING1 / Fold change vs veh, ING1 / RFU, TRMT61B / Fold change vs veh, TRMT61B / RFU, FUBP3 / Fold change vs veh, FUBP3 / RFU, TP53 / Fold change vs veh, TP53 / RFU, TNKS2 / Fold change vs veh, TNKS2 / RFU, ZFP14 / Fold change vs veh, ZFP14 / RFU, ACTR2 / Fold change vs veh, ACTR2 / RFU, PPP3R1 / Fold change vs veh, PPP3R1 / RFU, PIK3R1 / Fold change vs veh, PIK3R1 / RFU, HNRNPA1 / Fold change vs veh, HNRNPA1 / RFU, RNF170 / Fold change vs veh, RNF170 / RFU, ZNF28 / Fold change vs veh, ZNF28 / RFU, RNGTT / Fold change vs veh, RNGTT / RFU, OGT / Fold change vs veh, OGT / RFU, BRD1 / Fold change vs veh, BRD1 / RFU, MARS / Fold change vs veh, MARS / RFU, ZNF655 / Fold change vs veh, ZNF655 / RFU, FAHD1 / Fold change vs veh, FAHD1 / RFU, BDP1 / Fold change vs veh, BDP1 / RFU, LRRCC1 / Fold change vs veh, LRRCC1 / RFU, ARID1A / Fold change vs veh, ARID1A / RFU, ZNF146 / Fold change vs veh, ZNF146 / RFU, ZNF330 / Fold change vs veh, ZNF330 / RFU, GPN3 / Fold change vs veh, GPN3 / RFU, C9orf123 / Fold change vs veh, C9orf123 / RFU, N4BP2L2 / Fold change vs veh, N4BP2L2 / RFU, ARFIP1 / Fold change vs veh, ARFIP1 / RFU, FAM179B / Fold change vs veh, FAM179B / RFU, BCL10 / Fold change vs veh, BCL10 / RFU, UHRF1BP1L / Fold change vs veh, UHRF1BP1L / RFU, BET1 / Fold change vs veh, BET1 / RFU, CNOT2 / Fold change vs veh, CNOT2 / RFU, ZNF268 / Fold change vs veh, ZNF268 / Fold change vs veh, ZNF507 / RFU, DGCR2 / Fold change vs veh, DGCR2 / RFU, WDSUB1 / Fold change vs veh, WDSUB1 / Fold change vs veh, HSP90B1 /// MIR3652 / RFU, ADSS / Fold change vs veh, ADSS / RFU, GK / Fold change vs veh, GK / RFU, ZNF148 / Fold change vs veh, ZNF148 / RFU, TAF9 / Fold change vs veh, TAF9 / RFU, SLC1A5 / Fold change vs veh, SLC1A5 / RFU, SLMO2 / Fold change vs veh, SLMO2 / RFU, ABCC4 / Fold change vs veh, ABCC4 / RFU, LOC101060439 /// RAP1B / Fold change vs veh, LOC101060439 /// RAP1B / RFU, RFX7 / Fold change vs veh, RFX7 / RFU, GTPBP10 / Fold change vs veh, GTPBP10 / RFU, CNEP1R1 / Fold change vs veh, CNEP1R1 / RFU, BIVM-ERCC5 /// ERCC5 / Fold change vs veh, BIVM-ERCC5 /// ERCC5 / RFU, ILF3 / Fold change vs veh, ILF3 / RFU 11762660_at / Fold change /veh 11762660_at / RFU VCAN (11757783_s_at) / Fold change /veh VCAN (11757783_s_at) / RFU DDX43 (11728927_at) / Fold change /veh DDX43 (11728927_at) / RFU KRT8 (11758188_x_at) / Fold change /veh KRT8 (11758188_x_at) / RFU NKD1 (11759106_at) / Fold change /veh NKD1 (11759106_at) / RFU SRD5A1 (11742802_a_at) / Fold change /veh SRD5A1 (11742802_a_at) / RFU TPSAB1 /// TPSB2 (11721975_s_at) / Fold change /veh TPSAB1 /// TPSB2 (11721975_s_at) / RFU GSTM3 (11746129_a_at) / Fold change /veh GSTM3 (11746129_a_at) / RFU IL23R (11737362_x_at) / Fold change /veh IL23R (11737362_x_at) / RFU TMEM51 (11727254_a_at) / Fold change /veh TMEM51 (11727254_a_at) / RFU PIWIL2 (11732686_x_at) / Fold change /veh PIWIL2 (11732686_x_at) / RFU ORM1 (11744905_x_at) / Fold change /veh ORM1 (11744905_x_at) / RFU CCDC152 (11743942_at) / Fold change /veh CCDC152 (11743942_at) / RFU ECM1 (11717891_a_at) / Fold change /veh ECM1 (11717891_a_at) / RFU IL23R (11748794_a_at) / Fold change /veh IL23R (11748794_a_at) / RFU TNFAIP8L3 (11732012_x_at) / Fold change /veh TNFAIP8L3 (11732012_x_at) / RFU MBOAT4 (11741988_at) / Fold change /veh MBOAT4 (11741988_at) / RFU 11764193_at / Fold change /veh 11764193_at / RFU TMEM53 (11763286_at) / Fold change /veh TMEM53 (11763286_at) / RFU MAGEB2 (11727129_at) / Fold change /veh MAGEB2 (11727129_at) / RFU TMEM200A (11744735_a_at) / Fold change /veh TMEM200A (11744735_a_at) / RFU CCDC152 (11751479_a_at) / Fold change /veh CCDC152 (11751479_a_at) / RFU FAM211A (11726209_a_at) / Fold change /veh FAM211A (11726209_a_at) / RFU RGS16 (11746705_a_at) / Fold change /veh RGS16 (11746705_a_at) / RFU VCAN (11755009_s_at) / Fold change /veh VCAN (11755009_s_at) / RFU RHOB (11743442_s_at) / Fold change /veh RHOB (11743442_s_at) / RFU RGS16 (11720943_a_at) / Fold change /veh RGS16 (11720943_a_at) / RFU RGS16 (11720944_at) / Fold change /veh RGS16 (11720944_at) / RFU, VPS4B / Fold change vs veh, VPS4B / RFU, CREB1 / Fold change vs veh, CREB1 / RFU, DNAJC13 / Fold change vs veh, DNAJC13 / RFU, GNAQ / Fold change vs veh, GNAQ / RFU, CDK5R1 / Fold change vs veh, CDK5R1 / RFU, ZRANB3 / Fold change vs veh, ZRANB3 / RFU, CUL4A / Fold change vs veh, CUL4A / RFU, CCNY / Fold change vs veh, CCNY / RFU, UFL1 / Fold change vs veh, UFL1 / RFU, COG3 / Fold change vs veh, COG3 / RFU, DIAPH2 / Fold change vs veh, DIAPH2 / RFU, SKA2 / Fold change vs veh, SKA2 / RFU, AFF3 / Fold change vs veh, AFF3 / RFU, LMF1 / Fold change vs veh, LMF1 / RFU, IPO11 / Fold change vs veh, IPO11 / RFU, DFFB / Fold change vs veh, DFFB / RFU, FOXP1 / Fold change vs veh, FOXP1 / RFU, CARD8 / Fold change vs veh, CARD8 / RFU, STRN3 / Fold change vs veh, STRN3 / RFU, ADK / Fold change vs veh, ADK / RFU, RASSF2 / Fold change vs veh, RASSF2 / RFU, WIPF1 / Fold change vs veh, WIPF1 / RFU, LARP1B / Fold change vs veh, LARP1B / RFU, RASA1 / Fold change vs veh, RASA1 / RFU, RB1 / Fold change vs veh, RB1 / RFU, PPFIA1 / Fold change vs veh, PPFIA1 / RFU, MAT2A / Fold change vs veh, MAT2A / RFU, CCT5 / Fold change vs veh, CCT5 / RFU, WDR92 / Fold change vs veh, WDR92 / RFU, CUX1 / Fold change vs veh, CUX1 / RFU, TTC7A / Fold change vs veh, TTC7A / RFU, TMEM135 / Fold change vs veh, TMEM135 / RFU, DEPTOR / Fold change vs veh, DEPTOR / RFU, CPM / Fold change vs veh, CPM / RFU, DNAJB6 / Fold change vs veh, DNAJB6 / RFU, CACNA2D3 / Fold change vs veh, CACNA2D3 / RFU, DTX4 / Fold change vs veh, DTX4 / RFU, TFCP2 / Fold change vs veh, TFCP2 / RFU, GMCL1 /// GMCL1P1 / Fold change vs veh, GMCL1 /// GMCL1P1 / RFU, AEBP2 / Fold change vs veh, AEBP2 / RFU, SNHG1 /// SNORD22 /// SNORD25 /// SNORD26 /// SNORD27 /// SNORD28 /// SNORD29 /// SNORD31 / Fold change vs veh, SNHG1 /// SNORD22 /// SNORD25 /// SNORD26 /// SNORD27 /// SNORD28 /// SNORD29 /// SNORD31 / Fold change (Aza/veh), C12orf56 (ProbeSet 11735607_a_at) / Fold change (ACY-1035/veh), C12orf56 (ProbeSet 11735607_a_at) / Fold change (Aza/veh), FGFR1OP (ProbeSet 11751329_s_at) / Fold change (ACY-1035/veh), FGFR1OP (ProbeSet 11751329_s_at) / Fold change (Aza/veh), VPS36 (ProbeSet 11739960_a_at) / Fold change (ACY-1035/veh), VPS36 (ProbeSet 11739960_a_at) / RFU SYPL1 (11715823_x_at) / Fold change /veh SYPL1 (11715823_x_at) / RFU IGFBP7 (11715501_s_at) / Fold change /veh IGFBP7 (11715501_s_at) / RFU REEP3 (11722064_at) / Fold change /veh REEP3 (11722064_at) / RFU IGLL1 (11728026_x_at) / Fold change /veh IGLL1 (11728026_x_at): dose or concentration left out as unconfirmed
Conditions: ProbeSet 11734782_x_at; LIST D

In the case of `Nc1ncn([C@@H]2O[C@H](CO)[C@@H](O)[C@H]2O)c(=O)n1` [azacitidine], the “Fold change vs veh, WDR92” value is reported as 0.69.

Reference: PMC5218480 (PLoS ONE, 2017)
